The record followed here is patent US20230055568A1, “THERAPEUTIC AGENT FOR MYALGIC ENCEPHALOMYELITIS/CHRONIC FATIGUE SYNDROME” (MITSUBISHI TANABE PHARMA CORPORATION, priority 2020, published 2023).

“Also recorded” adds a separate entry of the source.

The assay relates to water-immersion stress loaded rat (fatigue rat) model. Kind of assay: weight-loaded forced swimming test in ME/CFS animal model (water-immersion stress loaded fatigue rat). The class given is in vivo. The note with it: Slc:SD fatigue rat, compared to fatigue control group, hydrochloride. The text has this: A […] encephalomyelitis/chronic fatigue syndrome (ME/CFS)-improving effect by the administration of the compound (amiselimod hydrochloride) relating to the present invention was verified as follows according to the method of Tanaka et al. (Establishment and assessment of a rat model fatigue. Neuroscience letters 2003, 352: 159-162) using a water-immersion stress loaded rat (fatigue rat) model. The animal used was 9-week-old Slc:SD rat. The rats were bred (water-immersion breeding) for 6 days in a plastic cage (W: 445×D: 276×H: 204 mm) containing tap water (water temperature: 23±1° C.) to a height of 1.5 cm, and a weight-loaded forced swimming test was conducted. on the final day. In the weight-loaded forced swimming test, a rat with a weight equivalent to 8% of its body weight attached to its tail was placed in a circular water tank (diameter: 18 cm, height: 70 cm, water depth: 40 cm, water temperature: 23±1° C.), and the time from the start of swimming until the rat's nose sinks from the water surface for 20 seconds was measured. The weight-loaded forced swimming test was conducted blindly. Amiselimod hydrochloride (0.1, 0.3 and 1 mg/kg administration) was orally administered once a day for 6 days from the start date of the water-immersion breeding. As control groups, a normal control group for normal breeding and a fatigue control group for water-immersion breeding were set, and the vehicle (0.5% HPMC) was administered to both groups. The number of cases was 10 in each group.

Turning to `CCCCCCCOc1ccc(CCC(N)(CO)CO)cc1C(F)(F)F.Cl` [amiselimod hydrochloride, 2-amino-2-[2-(4-heptyloxy-3-trifluoromethylphenyl)ethyl]propane-1,3-diol hydrochloride], the “swimming time in weight-loaded forced swimming test” value reads like this: (0.1 mg/kg orally once a day for 6 days, 0.1 mg/kg) “significant difference was observed; also recorded: significantly prolonged the swimming time”; (0.3 mg/kg orally once a day for 6 days, 0.3 mg/kg) “significant difference was observed; also recorded: significantly prolonged the swimming time”; (1 mg/kg orally once a day for 6 days, 1 mg/kg) “significant difference was observed; also recorded: significantly prolonged the swimming time”.
